Test results as given in the supplement of paper PMC8967900.

Key:
Assay in all cases: selective drug sensitivity score (sDSS, relative to normal bone marrow) (sDSS (score)); higher = more potent and effective on the cell line relative to normal bone marrow cells
Conditions in all cases: 72 h
ALL-PO = tested on: ALL-PO
CCRF-HSB2 = tested on: CCRF-HSB2
COG-LL-319h = tested on: COG-LL-319h
COG-LL-355h = tested on: COG-LL-355h
HAL-01 = tested on: HAL-01
KASUMI-2 = tested on: KASUMI-2
KOPN-8 = tested on: KOPN-8
MHH-CALL-3 = tested on: MHH-CALL-3
MHH-CALL-4 = tested on: MHH-CALL-4
MN-60 = tested on: MN-60
MOLT-16 = tested on: MOLT-16
NALL-1 = tested on: NALL-1
NALM-16 = tested on: NALM-16
NALM-6 = tested on: NALM-6
P30-OHKUBO = tested on: P30-OHKUBO
PF-382 = tested on: PF-382
REH = tested on: REH
RPMI-8402 = tested on: RPMI-8402
SEM cells = tested on: SEM cells
SUP-B15 = tested on: SUP-B15
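Also: ALL cell lines in 384-well plates, five doses spanning 10,000-fold, each plate scaled between vehicle and 100 µmol/L benzalkonium chloride controls, sDSS an adapted area-under-curve metric.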

Row | Compound | selective drug sensitivity score (ALL-PO) | selective drug sensitivity score (CCRF-HSB2) | selective drug sensitivity score (COG-LL-319h) | selective drug sensitivity score (COG-LL-355h) | selective drug sensitivity score (HAL-01) | selective drug sensitivity score (KASUMI-2) | selective drug sensitivity score (KOPN-8) | selective drug sensitivity score (MHH-CALL-3) | selective drug sensitivity score (MHH-CALL-4) | selective drug sensitivity score (MN-60) | selective drug sensitivity score (MOLT-16) | selective drug sensitivity score (NALL-1) | selective drug sensitivity score (NALM-16) | selective drug sensitivity score (NALM-6) | selective drug sensitivity score (P30-OHKUBO) | selective drug sensitivity score (PF-382) | selective drug sensitivity score (REH) | selective drug sensitivity score (RPMI-8402) | selective drug sensitivity score (SEM cells) | selective drug sensitivity score (SUP-B15)
1 | CN1CCN(C2CCC(n3cc(-c4ccc(Oc5ccccc5)cc4)c4c(N)ncnc43)CC2)CC1 (stereo not given) (top concentration 10000 nM) | 9.52 | 29.1 | 2.42 | -0.08 | 7.52 | -1.38 | 5.02 | 6.92 | 0.52 | 1.32 | 0.52 | 5.52 | 0.72 | 3.42 | 8.52 | 7.12 | 4.12 | 3.52 | 9.62 | 16.1
2 | CC[C@H](CC#N)OC(=O)N[C@@H](C)c1cccc(NC(=O)Nc2ccc(-c3cnco3)c(OC)c2)c1 [AVN944] (top concentration 10000 nM) | 5.94 | 14.5 | 12.3 | -2.16 | 5.54 | 14.4 | 19.5 | 11.1 | 2.44 | 3.64 | 22.3 | 2.64 | 0.24 | 15.5 | 13.8 | 10.2 | 16.8 | 11.9 | 7.04 | 14.6
3 | COc1ccc(-c2ccc3c(N4CCOC[C@@H]4C)nc(N4CCOC[C@@H]4C)nc3n2)cc1CO [AZD8055] (top concentration 10000 nM) | 10.6 | 10.1 | 5.28 | 6.38 | 5.08 | 14.6 | 22.6 | -0.52 | 2.88 | 7.98 | 12.5 | -3.22 | 1.78 | 3.68 | 16.6 | 9.18 | 12.8 | 7.78 | 6.18 | 11.9
4 | COc1cccc2c1C(=O)c1c(O)c3c(c(O)c1C2=O)C[C@@](O)(C(=O)CO)C[C@@H]3O[C@H]1C[C@H](N)[C@@H](O)[C@H](C)O1 [Epirubicin] (top concentration 1000 nM) | -1.78 | 14.8 | 16.3 | 3.22 | -4.28 | 7.72 | 9.42 | 14.8 | 6.92 | -0.98 | 15.4 | -5.28 | -0.28 | 3.82 | 6.92 | 2.12 | 10.5 | 6.62 | 3.82 | 13.7
5 | CO[C@H]1C[C@@H]2CC[C@@H](C)[C@@](O)(O2)C(=O)C(=O)N2CCCC[C@H]2C(=O)O[C@H]([C@H](C)C[C@@H]2CC[C@@H](OCCO)[C@H](OC)C2)CC(=O)[C@H](C)/C=C(\C)[C@@H](O)[C@@H](OC)C(=O)[C@H](C)C[C@H](C)/C=C/C=C/C=C/1C [Everolimus] (top concentration 100 nM) | 8.9 | 4.8 | 10.7 | 1.5 | 2.7 | 11.8 | 19.6 | 3.4 | -1.5 | 0.5 | 8.1 | -5.3 | -2 | -3.8 | 2 | 1.9 | 4 | -0.7 | 1.4 | 6.1
6 | CON(C)C(=O)N1N=C(c2cc(F)ccc2F)S[C@@]1(CCCN)c1ccccc1 [Filanesib] (top concentration 1000 nM) | 6.7 | 22.5 | 23.4 | 1.7 | 11.5 | 19.8 | 9.8 | 5.2 | 7.4 | 7.1 | 21.2 | 10.3 | 16.6 | 21 | 9.9 | 12.5 | 11.9 | 18.9 | 20.3 | 21.6
7 | CN(Cc1cnc2nc(N)nc(N)c2n1)c1ccc(C(=O)N[C@@H](CCC(=O)O)C(=O)O)cc1 [Methotrexate] (top concentration 5000 nM) | -0.12 | 14 | 20.1 | -0.42 | 17.1 | 0.28 | -0.12 | 10.4 | 9.68 | 14.6 | 15.7 | 12.7 | 6.68 | 16.4 | -0.42 | 11.7 | -0.22 | 20.2 | -0.42 | -0.32
8 | CC[C@@]1(O)C(=O)OCc2c1cc1n(c2=O)Cc2cc3c(CN(C)C)c(O)ccc3nc2-1 [Topotecan] (top concentration 10000 nM) | 17.9 | 23.3 | 18.6 | 10.9 | 20 | 14.7 | 23.4 | 12.2 | 16.5 | 4.28 | 21.5 | 20.4 | 7.18 | 17.1 | 18.9 | 18.2 | 22.2 | 19.4 | 20.3 | 22.4
9 | O=c1[nH]c(=O)n([C@H]2C[C@H](O)[C@@H](CO)O2)cc1C(F)(F)F [Trifluridine] (top concentration 10000 nM) | 20 | -1.84 | 20.2 | 0.06 | 8.76 | 10.3 | 17.4 | 6.56 | 2.26 | 3.66 | 15.1 | 9.76 | 4.06 | 15 | 11.9 | 4.16 | 15.3 | 15.5 | 14.5 | 15.4
10 | Cc1sc2c(c1C)C(c1ccc(Cl)cc1)=N[C@@H](CC(=O)NCCCCNC(=O)COc1cccc3c1C(=O)N(C1CCC(=O)NC1=O)C3=O)c1nnc(C)n1-2 (stereo not given in full) [dBET1] (top concentration 10000 nM) | -5.58 | 2.12 | 3.62 | 6.22 | -14.9 | -6.88 | 7.82 | -1.88 | 5.42 | -8.08 | 1.42 | -11.8 | -4.48 | -4.78 | 2.82 | -8.28 | -1.28 | -6.68 | -3.38 | 0.52
